Results: patent US8586751B2, “Nicotinamide compounds useful as kinase modulators” (Bristol-Myers Squibb Company, priority 2009, dated 2013)
Like-named read-outs stand apart in the source and are kept apart here.

Columns and labels:
[1] = test system: Ramos B cells with beta-lactamase reporter gene under control of an NFAT response element; test: NFAT-bla RA1 Reporter Assay (Ramos-NFAT); assay type: cell-based, human; settings: read-out: IMM Ramos-NFAT (IC50)
Procedure: NFAT-bla RA1 Reporter Assay
Ramos B cells containing a stable integration of a beta-lactamase reporter gene under the control of an NFAT response element (NFAT-bla RA1, Invitrogen, K1434) at a density of 100×10^3 cells/well were incubated with test compounds at 37° C. for 30 min prior to stimulation with F(ab′)2 anti-human IgM (Jackson ImmunoResearch, 109-006-129) at 2.5 μg/ml for 4.5 hrs at 37° C. After stimulation, LiveBLAzer-FRET B/G substrate (CCF2/AM, or CCF4/AM, Invitrogen) was added to each well and incubated for 90 min at room temperature in the dark. Assay plates were read on an LJL Analyst, with raw emission values subtracted from a media-only blank containing substrate in assay media (no cells). The ratios of 460 nm/530 nm emission (405 nm excitation) were used to calculate the amount of stimulation.

human recombinant Btk = target: T1, human recombinant Btk (Homo sapiens, UniProt Q06187); test: Human Recombinant Btk Enzyme Assay (LLE_BTK); assay type: biochemical
T1 construct: purchased Invitrogen Corporation
T1 sequence (Q06187 whole entry): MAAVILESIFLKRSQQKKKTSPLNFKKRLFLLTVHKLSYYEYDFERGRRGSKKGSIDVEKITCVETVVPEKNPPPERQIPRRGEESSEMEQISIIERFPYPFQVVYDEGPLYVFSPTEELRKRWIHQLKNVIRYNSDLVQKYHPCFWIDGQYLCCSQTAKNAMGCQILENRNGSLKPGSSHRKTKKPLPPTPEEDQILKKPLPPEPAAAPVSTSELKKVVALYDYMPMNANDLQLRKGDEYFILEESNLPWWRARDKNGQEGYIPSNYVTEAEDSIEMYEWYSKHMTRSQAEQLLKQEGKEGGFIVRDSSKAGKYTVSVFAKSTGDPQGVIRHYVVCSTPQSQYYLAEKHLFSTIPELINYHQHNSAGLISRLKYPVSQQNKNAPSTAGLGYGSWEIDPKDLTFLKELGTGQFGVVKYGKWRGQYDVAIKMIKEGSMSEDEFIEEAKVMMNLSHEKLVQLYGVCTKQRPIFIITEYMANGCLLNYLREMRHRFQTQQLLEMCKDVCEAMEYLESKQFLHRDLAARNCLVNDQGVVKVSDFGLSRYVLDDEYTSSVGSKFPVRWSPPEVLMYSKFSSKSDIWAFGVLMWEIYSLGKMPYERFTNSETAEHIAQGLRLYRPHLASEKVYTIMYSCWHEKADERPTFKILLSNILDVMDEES
Procedure: Human Recombinant Btk Enzyme Assay
To V-bottom 384-well plates were added test compounds, human recombinant Btk (1 nM, Invitrogen Corporation), fluoresceinated peptide (1.5 μM), ATP (20 μM), and assay buffer (20 mM HEPES pH 7.4, 10 mM MgCl2, 0.015% Brij35 and 4 mM DTT in 1.6% DMSO), with a final volume of 30 μL. After incubating at room temperature for 60 min, the reaction was terminated by adding 45 μl of 35 mM EDTA to each sample. The reaction mixture was analyzed on the Caliper LABCHIP® 3000 (Caliper, Hopkinton, Mass.) by electrophoretic separation of the fluorescent substrate and phosphorylated product. Inhibition data were calculated by comparison to no enzyme control reactions for 100% inhibition and no inhibitor controls for 0% inhibition. Dose response curves were generated to determine the concentration required inhibiting 50% of kinase activity (IC50). Compounds were dissolved at 10 mM in dimethylsulfoxide (DMSO) and evaluated at eleven concentrations.
Using this assay, the following IC50 values derived by non-linear regression analysis were determined and compared to those values of certain compounds in U.S. Publication No. 2007/078136 and U.S. Publication No. 2008/045536.

SMILES	IC50 ([1]; Homo sapiens, Ramos)	IC50 (human recombinant Btk)	IC50 [1]
CC(C)(C)OC(=O)N1CCCC(c2ccc(Nc3nc(N4CCCCC4)c(F)cc3C(N)=O)cc2)C1 (stereo not drawn) [Example 523]	10000 nM	3700 nM	
COc1ccc([C@H](C)N[C@H]2CCC[C@@H](c3nc(Nc4ccc(N5CCOCC5)cc4)c(C(N)=O)cc3F)C2)cc1 [Example 436]	7900 nM	2200 nM	
CC(=O)N1CCc2c(cccc2-c2ccc(C(N)=O)c(Nc3ccc(-c4cnco4)cc3)n2)C1 [Example 347]	10000 nM	2000 nM	
NC(=O)c1ccc(-c2cccc3c2CCNC3)nc1Nc1ccc(-c2cnco2)cc1 [Example 345]	920 nM	900 nM	
CS(=O)(=O)c1ccc(Nc2nc(N3CCC[C@@H](NC(=O)Nc4nccs4)C3)c(F)cc2C(N)=O)cc1 [Example 546]	230 nM	3 nM	
NC(=O)c1cc(F)c(N2CCC[C@@H](NC(=O)Nc3nccs3)C2)nc1Nc1ccc(CCn2ccnc2)cc1 [Example 548]	270 nM	2 nM	
CN1CCC(C)(c2ccc(Nc3nc(N4CCCC5(CC(c6ccccc6)=NO5)C4)c(F)cc3C(N)=O)cc2)CC1 (stereo not drawn) [Example 571]	150 nM	2 nM	
CN1CCN(c2ccc(Nc3nc(N4CCC[C@@H](N(C)C(=O)c5ccccc5)C4)c(F)cc3C(N)=O)cc2)CC1 [Example 418]	380 nM	2 nM	
CN1CCC(C)(c2ccc(Nc3nc(N4CCC[C@@H](NC(=O)c5ccccc5)C4)c(F)cc3C(N)=O)cc2)CC1 [Example 518]	30 nM	2 nM	
COc1ccc([C@H](C)N[C@H]2CCC[C@H](c3nc(Nc4ccc(N5CCOCC5)cc4)c(C(N)=O)cc3F)C2)cc1 [Example 435]	4500 nM	1300 nM	
CN1CCC(C)(c2ccc(Nc3nc(N4CCC[C@@H](NC(=O)Nc5ncc(F)s5)C4)c(F)cc3C(N)=O)cc2)CC1 [Example 495]	80 nM	1 nM	
C[N+](C)([O-])CCc1ccc(Nc2nc(N3CCC[C@@H](NC(=O)Nc4nccs4)C3)c(F)cc2C(N)=O)cc1 [Example 552]	5400 nM	1 nM	
NC(=O)c1cc(F)c(N2CCC[C@@H](NC(=O)Nc3nccs3)C2)nc1Nc1ccc(C(=O)N2CCOCC2)cc1 [Example 382]	800 nM	2 nM	
COc1ccc([C@H](C)N[C@@H]2C=C(c3nc(Nc4ccc(N5CCOCC5)cc4)c(C(N)=O)cc3F)CCC2)cc1 [Example 437]	2900 nM	740 nM	
CN1CCN(C(=O)c2ccc(Nc3nc(N4CCC[C@@H](NC(=O)Nc5nccs5)C4)c(F)cc3C(N)=O)cc2)CC1 [Example 544]	560 nM	0.9 nM	
CN1CCC(O)(c2ccc(Nc3nc(N4CCC[C@@H](N5CCCC5=O)C4)c(F)cc3C(N)=O)cc2)C(C)(C)C1 (stereo partly drawn) [Example 568]	120 nM	1 nM	
CN1CCC(c2ccc(Nc3nc(N4CCC[C@@H](NC(=O)c5ccccc5)C4)c(F)cc3C(N)=O)cc2)CC1 [Example 490]	270 nM	3 nM	
CN1CCC(C)(c2ccc(Nc3nc(N4CCC[C@@H](N5CCCC5=O)C4)c(F)cc3C(N)=O)cc2)CC1 [Example 566]	90 nM	3 nM	
CN1CCCC(c2ccc(Nc3nc(N4CCC[C@@H](NC(=O)Nc5nncs5)C4)c(F)cc3C(N)=O)cc2)C1 (stereo partly drawn) [Example 558]	380 nM	2 nM	
CN1CCN(c2ccc(Nc3nc(N4CCC[C@@H](NC(=O)c5ccc(F)c(F)c5)C4)c(F)cc3C(N)=O)cc2)CC1 [Example 413]	240 nM	1 nM	

Continued by falling IC50 ([1]; Homo sapiens, Ramos), values first:

IC50 ([1]; Homo sapiens, Ramos)	IC50 (human recombinant Btk)	IC50 [1]	SMILES
190 nM	3 nM		NC(=O)c1cc(F)c(N2CCC[C@@H](NC(=O)Nc3nccs3)C2)nc1Nc1ccc(C2CCOCC2)cc1 [Example 555]
180 nM	1 nM		CN1CCN(c2ccc(Nc3nc(N4CCC[C@@H](NC(=O)c5ccc(F)cc5)C4)c(F)cc3C(N)=O)cc2)CC1 [Example 412]
180 nM	1 nM		CN1CCN(c2ccc(Nc3nc(N4CCC[C@@H](N5CCCC5=O)C4)c(F)cc3C(N)=O)cc2)CC1 [Example 419]
170 nM	2 nM		CN1CCN(c2ccc(Nc3nc(N4CCC[C@@H](N5CCCC5=O)C4)c(F)cc3C(N)=O)cc2F)CC1 [Example 482]
140 nM	0.8 nM		CN(C)S(=O)(=O)c1ccc(Nc2nc(N3CCC[C@@H](NC(=O)c4ccccc4)C3)c(F)cc2C(N)=O)cc1 [Example 508]
140 nM	0.9 nM		CN1CCCC(c2ccc(Nc3nc(N4CCC[C@@H](NC(=O)Nc5nnc(C(C)(C)C)s5)C4)c(F)cc3C(N)=O)cc2)C1 (stereo partly drawn) [Example 561]
130 nM	0.7 nM		CN1CCC(c2ccc(Nc3nc(N4CCC[C@@H](NC(=O)Nc5nncs5)C4)c(F)cc3C(N)=O)cc2)CC1 [Example 493]
120 nM	20 nM		CN1CCN(c2ccc(Nc3nc(N4CCCCC4)c(F)cc3C(N)=O)cc2)CC1 [Example 393]
120 nM	30 nM		CN1CCN(c2ccc(Nc3nc(N4CCC(O)CC4)c(F)cc3C(N)=O)cc2)CC1 [Example 407]
110 nM	10 nM		CC(=O)N[C@@H]1CCCN(c2nc(Nc3ccc(N4CCN(C)CC4)cc3)c(C(N)=O)cc2F)C1 [Example 386]
100 nM	10 nM		CN1CCC(c2ccc(Nc3nc(N4CCCCC4)c(F)cc3C(N)=O)cc2)CC1 [Example 489]
100 nM	4 nM		CC(C)N1CCN(c2ccc(Nc3nc(N4CCC[C@@H](NC(=O)c5ccccc5)C4)ccc3C(N)=O)cc2)CC1 [Example 357]
100 nM	9 nM		CC(=O)N1CCN(c2ccc(Nc3nc(N4CCC[C@@H](NC(=O)Nc5ccc(C)c(C)c5)C4)ccc3C(N)=O)cc2)CC1 [Example 361]
100 nM	4 nM		CCN1CCN(c2ccc(Nc3nc(N4CCC[C@@H](NC(=O)c5ccccc5)C4)ccc3C(N)=O)cc2)CC1 [Example 354]
80 nM	0.8 nM		NC(=O)c1cc(F)c(N2CCC[C@@H](NC(=O)Nc3nccs3)C2)nc1Nc1ccc(N2CCOCC2)c(F)c1 [Example 451]
80 nM	7 nM		NC(=O)c1cc(F)c(N2CCC[C@@H](NC(=O)c3ccccc3)C2)nc1Nc1ccc(N2CCS(=O)(=O)CC2)cc1 [Example 503]
70 nM	1 nM		CN1CCN(c2ccc(Nc3nc(N4CCC[C@@H](NC(=O)c5ccccc5)C4)c(F)cc3C(N)=O)cc2F)CC1 [Example 479]
70 nM	2 nM		CN1CCCC(c2ccc(Nc3nc(N4CCC[C@@H](NC(=O)Nc5nnc(C(F)(F)F)s5)C4)c(F)cc3C(N)=O)cc2)C1 (stereo partly drawn) [Example 559]
60 nM	7 nM		CN1CCN(c2ccc(Nc3nc(N4CCC[C@@H](NC(=O)Nc5nccs5)C4)ccc3C(N)=O)cc2)CC1 [Example 284]
60 nM	2 nM		CN1CCCC(c2ccc(Nc3nc(N4CCC[C@@H](NC(=O)Nc5nccs5)C4)c(F)cc3C(N)=O)cc2)C1 (stereo partly drawn) [Example 557]
40 nM	0.2 nM		CN1CCN(c2ccc(Nc3nc(N4CCC[C@@H](NC(=O)Nc5nccs5)C4)c(F)cc3C(N)=O)cc2F)CC1 [Example 480]
40 nM	7 nM		Cc1csc(NC(=O)N[C@@H]2CCCN(c3ccc(C(N)=O)c(Nc4ccc(N5CCN(C)CC5)cc4)n3)C2)n1 [Example 12, (R)-2-(4-(4-Methylpiperazin-1-yl)phenylamino)-6-(3-(3-(4-methylthiazol-2-yl)ureido)piperidin-1-yl)nicotinamide]
40 nM	2 nM		NC(=O)c1cc(F)c(N2CCC[C@@H](NC(=O)Nc3nccs3)C2)nc1Nc1ccc(N2CCOCC2)cc1 [Example 421]
30 nM	0.7 nM		NC(=O)c1cc(F)c(N2CCC[C@@H](NC(=O)Nc3nccs3)C2)nc1Nc1ccc(CCN2CCCC2)cc1 [Example 549]
30 nM	0.6 nM	50 nM	CN(C)CCc1ccc(Nc2nc(N3CCC[C@@H](NC(=O)Nc4nccs4)C3)c(F)cc2C(N)=O)cc1 [Example 458]
20 nM	1 nM		CN1CCC(c2ccc(Nc3nc(N4CCC[C@@H](NC(=O)Nc5nccs5)C4)c(F)cc3C(N)=O)cc2)CC1 [Example 492]
